Values joined by “and” are separate entries in the source; they are usually repeats but may differ in a detail not shown here. Equal values may be shown once. Read-outs that look alike come from different tables or passages of the source.
Experiments:
[1] = molecular target: PfPMT (Plasmodium falciparum, UniProt Q8IDQ9); assay: PfPMT gene replacement yeast growth; conditions: 100µM
[2] = system: NCI60 human tumor cell lines; assay: NCI60 5-dose (dose-response) assay; assay type: cell-based; conditions: for MGLI50 = Mean Growth Log I50: 5-dose, mean over NCI60 panel; for _MID Log10GI50 / _MID Log10LC50 / _MID Log10TGI: mean over cell lines of one experiment
Description: Columns IE-KK. NCI: Misra group (data presented first in this paper). NCI60 anti-tumor cell activity. Methods: […] These 60 cell lines, along with others, have been developed at NCI and have been maintained and distributed for research purposes by NCI for over 25 years. The experimental readout provides both inhibition of cell growth and cell kill. The screen was originally designed to prioritize agents for further evaluation. […] This is the same as for the 5-dose assay, described on http://dtp.cancer.gov/branches/btb/ivclsp.html. […] Testing beyond the initial screen: There were 133 compounds that passed threshold to proceed to 5-dose (dose-response) (data are available for the 133 compounds at the DTP public website (dtp.cancer.gov) by searching either the MMV number or NSC number). After examination of the 5-dose data, 10 compounds were selected for repeat testing based generally on potency, differential cell activity or activity on an individual cell lines or cell line panel. A summary of the data for the 10 compounds of interest is in the table below.

[3] = system: P. falciparum 3D7; assay: [3H]-hypoxanthine growth inhibition, modified HCO3- or O2; assay type: cell-based; conditions: for IC50: Plasmodium falciparum
[4] = system: P. falciparum 3D7 trophozoites; assay: Metabolomic fingerprint profiling LC-MS; assay type: cell-based, Plasmodium falciparum; set-up: UDP-D-glucose / ADP-D-glucose: unit not given here
[5] = system: P. falciparum; assay: EC50 listed in S2 Table Metabolomics (used to set the concentration tested); assay type: cell-based; conditions: Plasmodium falciparum; EC50 used for Factor_XEC50 in metabolomics; read-out: EC50_nM
[6] = metabolite level change after treatment

Chain of PfPMT (Q8IDQ9 whole entry): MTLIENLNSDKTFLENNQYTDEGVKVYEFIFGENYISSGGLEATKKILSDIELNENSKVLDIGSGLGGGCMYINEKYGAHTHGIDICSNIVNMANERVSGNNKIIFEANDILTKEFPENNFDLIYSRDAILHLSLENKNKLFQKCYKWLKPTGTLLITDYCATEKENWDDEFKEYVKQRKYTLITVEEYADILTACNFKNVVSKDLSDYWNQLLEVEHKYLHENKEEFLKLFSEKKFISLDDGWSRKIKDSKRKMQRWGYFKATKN

## COc1ccc(C2c3ccc4ccccc4c3Oc3ncn(CCCN(C)C)c(=N)c32)cc1 (stereo not shown) [MMV667491]
[1]
  candidate inhibitors of PfPMT activity (yeast functional assay): candidate inhibitors of PfPMT activity

## COc1cc(C(=O)ON=C(N)Cc2cccc3ccccc23)cc(OC)c1OC [MMV666687]
[1]
  candidate inhibitors of PfPMT activity (yeast functional assay): candidate inhibitors of PfPMT activity

## OC(CNCC1CCCO1)Cn1c2ccc(Cl)cc2c2cc(Cl)ccc21 (stereo not shown) [MMV396736]
[1]
  candidate inhibitors of PfPMT activity (yeast functional assay): candidate inhibitors of PfPMT activity

## O=C(NC1CCN(Cc2ccccc2)CC1)c1cc(-c2ccncc2)nc2ccc(Cl)cc12 [MMV020275]
[2]
  MGLI50 = Mean Growth Log I50: -4.93
[2]; listed as 766585/2
  _MID Log10GI50: -4.95 Molar and -4.91 Molar
  _MID Log10LC50: -4.05 Molar and -4.01 Molar
  _MID Log10TGI: -4.34 Molar and -4.19 Molar

## Cc1ccc2c(C)nc(Nc3nc(C)cc(-c4ccccc4)n3)nc2c1 [MMV007041]
[1]
  candidate inhibitors of PfPMT activity (yeast functional assay): candidate inhibitors of PfPMT activity

## Cc1ccc(OCCCCCCNCCO)c(C)c1 [MMV666020]
[2]
  MGLI50 = Mean Growth Log I50: -4.9
[2]; listed as 766672/2
  _MID Log10GI50: -4.93 Molar and -4.86 Molar
  _MID Log10LC50: -4.21 Molar and -4.19 Molar
  _MID Log10TGI: -4.56 Molar and -4.52 Molar

## CCCCCCn1c(=N)n(CC(O)COc2cccc(C)c2)c2ccccc21 (stereo not shown) [MMV000445]
[1]
  candidate inhibitors of PfPMT activity (yeast functional assay): candidate inhibitors of PfPMT activity

## CCOC(=O)c1cnc2ccc(OC)cc2c1Nc1ccc(N2CCN(C)CC2)cc1 [MMV000704]
[1]
  candidate inhibitors of PfPMT activity (yeast functional assay): candidate inhibitors of PfPMT activity

## COc1cccc(C(=O)NC(c2ccc(C)cc2)c2cc(Cl)c3cccnc3c2O)c1 (stereo not shown) [MMV665969]
[2]
  MGLI50 = Mean Growth Log I50: -6.29
  _MID Log10GI50: -6.3 Molar
  _MID Log10LC50: -4.16 Molar
  _MID Log10TGI: -4.91 Molar

## O=C(Nc1ccc(-c2nc3cc(NC(=O)c4ccc(Cl)cc4)ccc3[nH]2)cc1)c1ccc(Cl)cc1 [MMV006962]
[2]
  Notes (NCI60 5-dose activity pattern): Differential, CNS
  MGLI50 = Mean Growth Log I50: -5.61

## N=c1n(CCN2CCCCC2)c2ccccc2n1CC(=O)c1ccc(Cl)c(Cl)c1 [MMV396723]
[1]
  candidate inhibitors of PfPMT activity (yeast functional assay): candidate inhibitors of PfPMT activity

## CCOc1cc(Br)c(C(C)NC(=O)c2cccc(OC)c2)cc1OCC (stereo not shown) [MMV665796]
[2]
  MGLI50 = Mean Growth Log I50: -5
  _MID Log10LC50: -4.0 Molar
[2]; listed as 766556/2
  _MID Log10GI50: -5.02 Molar and -4.97 Molar
  _MID Log10TGI: -4.07 Molar and -4.08 Molar

## CCOc1ccc(Nc2c3ccccc3nc3ccccc23)cc1 [MMV000304]
[1]
  candidate inhibitors of PfPMT activity (yeast functional assay): candidate inhibitors of PfPMT activity

## CCOc1cc(Cl)c(C(C)NC(=O)c2cccc(OC)c2)cc1OCC (stereo not shown) [MMV665803]
[2]
  MGLI50 = Mean Growth Log I50: -5.01
  _MID Log10LC50: -4.0 Molar
[2]; listed as 766546/2
  _MID Log10GI50: -5.1 Molar and -4.93 Molar
  _MID Log10TGI: -4.1 Molar and -4.05 Molar

## CCCCCCc1cc2cc(-c3nc4ccccc4[nH]3)c(=Nc3ccccc3C)oc2cc1O [MMV666597]
[2]
  Notes (NCI60 5-dose activity pattern): Differential
  MGLI50 = Mean Growth Log I50: -5.57

## CN1c2ccccc2N(C)C1c1ccc2c(c1)OCO2 [MMV666009]
[1]
  candidate inhibitors of PfPMT activity (yeast functional assay): candidate inhibitors of PfPMT activity

## Oc1c(CN2CCN(c3ccccc3F)CC2)cc(Br)c2cccnc12 [MMV000760]
[2]
  Notes (NCI60 5-dose activity pattern): Differential
  MGLI50 = Mean Growth Log I50: -6.02
[2]; listed as 766634/2
  _MID Log10GI50: -6.03 Molar and -6.0 Molar
  _MID Log10LC50: -4.04 Molar and -4.06 Molar
  _MID Log10TGI: -4.67 Molar and -4.74 Molar

## CN(C)CCCNc1c2ccccc2nc2ccccc12 [MMV000448]
[3]
  fold change (IC50normal/ IC50hypoxia): 6.1
  fold change (IC50reduced/IC50normal): 3.1
[3]; 3D7, read-out: P. falciparum 3D7 IC50 1% O2, 1% O2 hypoxia
  IC50: 59 nM
[3]; 3D7, read-out: P. falciparum 3D7 IC50 5% O2
  IC50: 360 nM
[3]; 3D7, read-out: P. falciparum 3D7 IC50 HCO3- (2g/L), standard media
  IC50: 190 nM
[3]; 3D7, HCO3- reduced media, read-out: P. falciparum 3D7 IC50 HCO3- reduced
  IC50: 594 nM
[4]; S2 Table Metabolomics, metabolite Acetyllysine
  Acetyllysine: -0.6096
[4]; S2 Table Metabolomics, metabolite N-acetyl-L-ornithine
  N-acetyl-L-ornithine: -0.1966
[4]; S2 Table Metabolomics, metabolite N-carbamoyl-L-aspartate
  N-carbamoyl-L-aspartate: -0.218
[4]; S2 Table Metabolomics, metabolite NADPH
  NADPH: 1.387
[4]; S2 Table Metabolomics, metabolite dAMP
  dAMP: -0.07728
[4]; S2 Table Metabolomics, metabolite dCMP
  dCMP: 0.0599
[4]; S2 Table Metabolomics, metabolite dTDP
  dTDP: -0.2724
[4]; S2 Table Metabolomics, metabolite dTMP
  dTMP: -0.1401
[4]; S2 Table Metabolomics, metabolite dTTP
  dTTP: 0.115
[4]; S2 Table Metabolomics, metabolite dihydroorotate
  dihydroorotate: -0.03007
[4]; S2 Table Metabolomics, metabolite orotate
  orotate: -0.5122
[4]; S2 Table Metabolomics, peptide DLH
  DLH: -0.2186
[4]; S2 Table Metabolomics, peptide DLS/SDL/SID
  DLS/SDL/SID: 0.06919
[4]; S2 Table Metabolomics, peptide PD
  PD: 0.358
[4]; S2 Table Metabolomics, peptide PEE
  PEE: 0.9721
[4]; S2 Table Metabolomics, peptide PVNF
  PVNF: 0.2725
[4]; metabolite 3-phosphoglycerate, S2 Table Metabolomics
  3-phosphoglycerate: -0.1099
[4]; metabolite ADP-D-glucose, S2 Table Metabolomics
  ADP-D-glucose: 0.3085
[4]; metabolite ATP, S2 Table Metabolomics
  ATP: -0.1913
[4]; metabolite CDP, S2 Table Metabolomics, change in metabolite level after compound treatment
  CDP: 0.02837
[4]; metabolite D-sedoheptulose-1/7-phosphate, S2 Table Metabolomics, change in metabolite level after compound treatment
  D-sedoheptulose-1/7-phosphate: -0.03224
[4]; metabolite FAD, S2 Table Metabolomics
  FAD: -0.02095
[4]; metabolite GMP, S2 Table Metabolomics, change in metabolite level after compound treatment
  GMP: -0.2572
[4]; metabolite NAD+, S2 Table Metabolomics
  NAD+: -0.1627
[4]; metabolite NADP+, S2 Table Metabolomics
  NADP+: 0.3266
[4]; metabolite Octoluse Bisphosphate, S2 Table Metabolomics, change in metabolite level after compound treatment
  Octoluse Bisphosphate: -0.105
[4]; metabolite Pyroglutamic acid, S2 Table Metabolomics
  Pyroglutamic acid: -0.3472
[4]; metabolite UDP-D-glucose, S2 Table Metabolomics
  UDP-D-glucose: -0.06298
[4]; metabolite UDP-D-glucuronate, S2 Table Metabolomics
  UDP-D-glucuronate: -0.1533
[4]; metabolite UDP-N-acetyl-glucosamine, S2 Table Metabolomics
  UDP-N-acetyl-glucosamine: -0.07606
[4]; metabolite UDP, S2 Table Metabolomics, change in metabolite level after compound treatment
  UDP: 0.1622
[4]; metabolite UMP, S2 Table Metabolomics, change in metabolite level after compound treatment
  UMP: -0.1529
[4]; metabolite UTP, S2 Table Metabolomics, change in metabolite level after compound treatment
  UTP: 0.06952
[4]; metabolite a-ketoglutarate, S2 Table Metabolomics
  a-ketoglutarate: -0.5075
[4]; metabolite citrate/isocitrate, S2 Table Metabolomics, change in metabolite level after compound treatment
  citrate/isocitrate: -0.2451
[4]; metabolite cytidine, S2 Table Metabolomics
  cytidine: -0.2174
[4]; metabolite dATP, S2 Table Metabolomics
  dATP: 0.09204
[4]; metabolite dGMP/AMP, S2 Table Metabolomics, change in metabolite level after compound treatment
  dGMP/AMP: -0.1732
[4]; metabolite fumarate, S2 Table Metabolomics, change in metabolite level after compound treatment
  fumarate: 0.04552
[4]; metabolite glucose-1/6-phosphate, S2 Table Metabolomics, change in metabolite level after compound treatment
  glucose-1/6-phosphate: -0.4595
[4]; metabolite glycerate, S2 Table Metabolomics, change in metabolite level after compound treatment
  glycerate: -0.9564
[4]; metabolite guanine, S2 Table Metabolomics, change in metabolite level after compound treatment
  guanine: 0.005054
[4]; metabolite guanosine, S2 Table Metabolomics, change in metabolite level after compound treatment
  guanosine: -0.4079
[4]; metabolite hypoxanthine, S2 Table Metabolomics
  hypoxanthine: -0.5072
[4]; metabolite indole, S2 Table Metabolomics
  indole: -0.3067
[4]; metabolite inosine, S2 Table Metabolomics, change in metabolite level after compound treatment
  inosine: -0.6058
[4]; [6]
  2_3-Diphosphoglyceric acid: 0.03945
  4-phosphopantothenate: -0.1337
  6-phospho-D-gluconate: 0.01561
  FMN: -0.3847
  IMP: -0.1057
  Pyrophosphate: 0.1028
  Sedoheptoluse bisphosphate: -0.05677
  cyclic-AMP: -0.3139
  glutathione disulfide: -0.02692
  lactate: -0.5186
  myo-inositol: -0.8275
[4]; metabolite nicotinate, S2 Table Metabolomics
  nicotinate: -0.004192
[4]; metabolite ornithine, S2 Table Metabolomics
  ornithine: -0.09669
[4]; metabolite phosphoenolpyruvate, S2 Table Metabolomics
  phosphoenolpyruvate: -0.129
[4]; metabolite pyruvate, S2 Table Metabolomics, change in metabolite level after compound treatment
  pyruvate: -0.7877
[4]; metabolite ribose-phosphate, S2 Table Metabolomics
  ribose-phosphate: -0.2371
[4]; metabolite sarcosine/alanine, S2 Table Metabolomics, change in metabolite level after compound treatment
  sarcosine/alanine: 0.03174
[4]; metabolite sn-glycerol-3-phosphate, S2 Table Metabolomics
  sn-glycerol-3-phosphate: -0.01243
[4]; metabolite succinate/methylmalonic acid, S2 Table Metabolomics, change in metabolite level after compound treatment
  succinate/methylmalonic acid: -0.2869
[4]; metabolite uridine, S2 Table Metabolomics, change in metabolite level after compound treatment
  uridine: -0.8523
[4]; metabolite xanthosine, S2 Table Metabolomics, change in metabolite level after compound treatment
  xanthosine: -0.9083
[5]
  EC50: 235 nM

From PMC4965013, “Open Source Drug Discovery with the Malaria Box Compound Collection for Neglected Diseases and Beyond” (PLoS Pathogens, 2016)
